The values below come from PMC9573605, “Exploring Nitric Oxide (NO)-Releasing Celecoxib Derivatives as Modulators of Radioresponse in Pheochromocytoma Cells” (Molecules, 2022).

Series [1] has as its target T1, recombinant human COX-2 (Homo sapiens, UniProt P35354).
T1 construct: purchased Cayman Chemical 700100
T1 sequence (P35354 18-604): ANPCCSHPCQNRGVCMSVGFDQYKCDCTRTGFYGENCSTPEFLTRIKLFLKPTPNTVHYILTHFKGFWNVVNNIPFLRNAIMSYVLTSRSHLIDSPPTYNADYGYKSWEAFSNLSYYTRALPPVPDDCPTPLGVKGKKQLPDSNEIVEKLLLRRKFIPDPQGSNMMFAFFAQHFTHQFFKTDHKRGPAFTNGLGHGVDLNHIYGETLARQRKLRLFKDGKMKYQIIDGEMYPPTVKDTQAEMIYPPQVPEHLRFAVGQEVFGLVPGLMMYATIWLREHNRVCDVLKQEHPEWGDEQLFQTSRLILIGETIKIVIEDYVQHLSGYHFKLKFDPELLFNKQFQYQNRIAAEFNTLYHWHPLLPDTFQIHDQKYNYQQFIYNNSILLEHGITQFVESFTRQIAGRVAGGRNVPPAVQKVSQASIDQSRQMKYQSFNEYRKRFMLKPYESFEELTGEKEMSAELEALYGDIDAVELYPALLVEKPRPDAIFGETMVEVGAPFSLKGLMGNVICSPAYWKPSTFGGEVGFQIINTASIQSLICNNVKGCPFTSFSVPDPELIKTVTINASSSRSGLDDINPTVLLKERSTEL
The series can be described thus: COX Fluorescent Inhibitor Screening Assay, COX-2. The format is biochemical. The settings on record: for SI: COX-1 vs COX-2 selectivity index; for IC50: human COX-2. The procedure: COX inhibition (Table 1) was evaluated in vitro using purified ovine COX-1 and recombinant human COX-2 enzyme in a commercially available “COX Fluorescent Inhibitor Screening Assay KIT” (item no. 700100, Cayman Chemical, Ann Arbor, MI, USA). Celecoxib served as a reference and inhibition data concerning 4a, 4e, 5a and 5e were previously reported by us and is herein discussed for comparison.
COX inhibition activity against ovine COX-1 and human COX-2 was determined using the fluorescence-based COX assay “COX Fluorescent Inhibitor Screening Assay Kit” (catalog number 700100; Cayman Chemical, Ann Arbor, MI, USA) according to the manufacturer’s instructions. Compounds 6a–d were screened at a concentration of 100 µM, all others were assayed in a concentration range of 0.1 nM to 100 μM in duplicate.

A short description of series [2]: Lipophilicity logD7.4 by HPLC method. The format is physicochemical. Particulars: HPLC retention on ODP-50 4B column (Shodex Asahipak), phosphate buffer pH 7.4. The procedure:
The lipophilicity of all synthesized compounds was determined as logD7.4, HPLC value by an HPLC method originally described by Donovan and Pescatore.
The logD7.4HPLC value was determined as previously reported by us utilizing an HPLC method originally described by Donovan and Pescatore.

A short description of series [3]: Fluorometric NO release assay (Griess assay). The series is classed as physicochemical. Particulars: 24 h, 37 °C, relative to initial molar amount of compound; for thiol-dependent NO release: 2.5 mM cysteine; for spontaneous NO release: absence of cysteine. The procedure:
The nitric oxide releasing properties of the nitroester-derivatives 5a–d, 5f, and 6a–d were evaluated using a fluorometric Griess assay in the presence and absence of cysteine to determine thiol-dependent and spontaneous release of nitric oxide (Figure 3).
Nitric oxide release of compounds within 24 h at 37 °C was measured using the fluorometric nitric oxide microplate assay kit ab65327 (Abcam, Cambridge, UK). For measurement of spontaneous release, 1.8 nmol of compounds were incubated in 75 µL Dulbecco’s PBS containing 0.05% v/v residual DMSO and 2.5 mM DTPA (pH = 7.1) for 24 h at 37 °C. Thiol-dependent release was measured accordingly in presence of 2.5 mM cysteine. Two series of nitrate standards were prepared (0.2−1 nmol) in 75 µL incubation buffer, in presence or absence of cysteine, respectively. According to the manufacturer’s instructions, all nitrate content in samples and standards was enzymatically converted into nitrite through incubation with nitrate reductase for 2 h at room temperature, and the resulting nitrite content (total nitric oxide) was determined through reaction with 2,3-diaminonaphthalene followed by measurement of fluorescence intensity at λex/em = 360/450 nm using a microplate reader. Nitrite content in samples was calculated from linear regression of standards and expressed as relative nitric oxide release (%) normalized to the initial molar amount of compound. NONOate served as positive control.
Figure 3 Spontaneous and thiol-dependent NO^• release from NO-COXIBs; measured using fluorometric Griess assay (n = 2); relative release indicates the percentage of soluble nitrogen species (nitrate + nitrite) detected in the incubation buffer after 24 h compared to the initial molar amount of compounds; NO^• release of NONOate (positive control) exceeded the maximum detection limit; data presented as mean ± range.
On the technique in general: The Griess reaction detects nitrite, a stable product of nitric oxide.

The subject of series [4] is MPC-HIF2α tumor spheroids. The series can be described thus: Spheroid regrowth assay with [177Lu]LuCl3 treatment. The series is classed as cell-based, mouse. The settings on record: 10 µM compound with 0.25 MBq [177Lu]LuCl3 for six days; for growth response (spheroid size): compared to controls; for 14-day regrowth probability: controls 50%. The source says:
Radionuclide therapy is a fast-evolving treatment modality gaining more importance in treating cancer. For treatment of pheochromocytomas and paragangliomas, in particular, somatostatin type 2 receptor-targeted radionuclide therapy with [^177Lu]Lu-(Tyr^3)octreotate is currently investigated in clinical controlled trials (e.g., NCT04029428, NCT03923257, NCT03206060). To assess the additional effects of NO-COXIBs on the outcome of Lu-177 therapy, a simplified in vitro setup was used here, where MPC-HIF2α tumor spheroids were treated with 10 µM of the compounds and simultaneously 0.25 MBq of [^177Lu]LuCl3 for six days.
Genetically modified mouse pheochromocytoma (MPC) cells expressing a codon-optimized Epas1 gene (encoding HIF2α) were cultured as three-dimensional tumor spheroids as published elsewhere. External X-ray beam radiation treatment and [^177Lu]LuCl3 radionuclide treatment was performed as reported previously with some modifications. In brief, spheroids were irradiated with a 200 kV photon beam using a Maxishot X-ray system equipped with a Y.TU/320-D03 tube (YXLON, Hamburg, Germany), growth of spheroids (n = 6) with diameters between 300−400 µm was measured in response to one fixed radiation dose, 15 Gy for X-ray treatment, and 0.25 MBq/mL of [^177Lu]LuCl3 for radionuclide treatment corresponding to a cumulative dose of approximately 2 Gy delivered for 6 days. The applied radiation doses were selected based on the half-maximal spheroid control doses (SCD50) as previously determined for MPC HIF2α spheroids by us. Spheroids were considered as regrown at 100 µm increase in diameter compared to treatment start or at a diameter growth rate of 15 µm per day. Results are reported as spheroid regrowth probability (%).
Figure 5 Effects of NO-COXIBs on radiation treatments of MPC-HIF2α tumor spheroids. (A) Growth responses to X-ray treatment with a radiation dose of 15 Gy in combination with 10 µM NO-COXIBs added to the medium at indicated time points before or after irradiation. (B) Growth responses to [^177Lu]LuCl3 treatment with an initial activity concentration of 0.25 MBq/mL in combination with NO-COXIBs; log2 fold changes in diameter indicate the number of diameter doublings compared to treatment start; 14-day regrowth probability indicates the fraction of spheroids able to regrow within 14 days after treatment start; (black arrows) time point or duration of radiation treatment; (w/o) vehicle controls are shown as black lines; (Ce) celecoxib.

Setting [5] is: screened at a concentration of 100 µM.

Bounds are passed on as bounds.

As a reminder, the IC50 is the point on the concentration scale where inhibition reaches its midpoint. In general, chromatographic logD refers to a lipophilicity value derived from retention on a column. Higher therefore signals a more lipophilic compound. Take `Cc1ccc(-c2c(Cl)c(CO[N+](=O)[O-])nn2-c2ccc(S(C)(=O)=O)cc2)cc1` [5c, {4-Chloro-1-[4-(methylsulfonyl)phenyl]-5-(p-tolyl)-1H-pyrazol-3-yl}methyl nitrate]: the SI in series [1] is listed as greater than 47. In series [1] (0.1 nM to 100 µM in duplicate), the IC50 is 2.12 µM. The compound also displayed a chromatographic logD in series [2] of 4.04. Also, in series [3], the “thiol-dependent NO release” value is given as 17% and the “spontaneous NO release” value is on record as “no detectable”. Further, in series [4], the “growth response (spheroid size)” value is reported as “prevented spheroids from shrinking in size” and the 14-day regrowth probability was 60–80%.
Turning to `COc1ccc(-c2c(Cl)c(CO[N+](=O)[O-])nn2-c2ccc(S(C)(=O)=O)cc2)cc1` [5d, {4-Chloro-5-(4-methoxyphenyl)-1-[4-(methylsulfonyl)phenyl]-1H-pyrazol-3-yl}methyl nitrate], in series [1], the SI was greater than 92. Moreover, the IC50 in series [1] (0.1 nM to 100 µM in duplicate) was 1.08 µM. Further, the chromatographic logD in series [2] is 4.02. Besides, in series [3], the “thiol-dependent NO release” value is reported as 29–53% and the “spontaneous NO release” value is 10–22%. In series [4], the “growth response (spheroid size)” value is on record as “prevented spheroids from shrinking in size” and the 14-day regrowth probability is given as 60–80%.
For `COc1ccc(-c2cc(CO[N+](=O)[O-])nn2-c2ccc(S(N)(=O)=O)cc2)cc1` [5f, [5-(4-Methoxyphenyl)-1-(4-sulfamoylphenyl)-1H-pyrazol-3-yl]methyl nitrate], the SI in series [1] is on record as greater than 84. In addition, the IC50 in series [1] (0.1 nM to 100 µM in duplicate) was found to be 1.18 µM. This compound showed a chromatographic logD in series [2] of 3.32. In series [3], the “thiol-dependent NO release” value is reported as 29–53% and the “spontaneous NO release” value is listed as 10–22%. For the same compound, in series [4], the “growth response (spheroid size)” value is recorded as “prevented spheroids from shrinking in size” and the 14-day regrowth probability is recorded as 60–80%.
Take `CCC(=O)NS(=O)(=O)c1ccc(-n2nc(CO[N+](=O)[O-])c(Cl)c2-c2ccc(C)cc2)cc1` [6a, {4-Chloro-1-[4-(N-propionylsulfamoyl)phenyl]-5-(p-tolyl)-1H-pyrazol-3-yl}methyl nitrate]: the IC50 in series [1] (setting [5]) is greater than 100 µM. In series [2], the chromatographic logD worked out at 2.27. Moreover, in series [3], the “thiol-dependent NO release” value is listed as 29–53% and the “spontaneous NO release” value is given as 10–22%. In series [4], the “growth response (spheroid size)” value is “prevented spheroids from shrinking in size”.
In the case of `CCC(=O)NS(=O)(=O)c1ccc(-n2nc(CO[N+](=O)[O-])c(Cl)c2-c2ccc(OC)cc2)cc1` [6b, {4-Chloro-5-(4-methoxyphenyl)-1-[4-(N-propionylsulfamoyl)phenyl]-1H-pyrazol-3-yl}methyl nitrate], the IC50 in series [1] (setting [5]) was greater than 100 µM. Also, the chromatographic logD in series [2] was 2.1. In series [3], the “thiol-dependent NO release” value turned out to be 56% and the “spontaneous NO release” value was “no detectable”. For the same compound, in series [4], the 14-day regrowth probability was 100%.
On to `CCC(=O)NS(=O)(=O)c1ccc(-n2nc(CO[N+](=O)[O-])cc2-c2ccc(C)cc2)cc1` [6c, {1-[4-(N-Propionylsulfamoyl)phenyl]-5-(p-tolyl)-1H-pyrazol-3-yl}methyl nitrate], for which, in series [1] (setting [5]), the IC50 is greater than 100 µM. The chromatographic logD in series [2] came to 1.82. Moreover, in series [3], the “thiol-dependent NO release” value is on record as 40% and the “spontaneous NO release” value worked out at 26%. Further, in series [4], the “growth response (spheroid size)” value is reported as “prevented spheroids from shrinking in size” and the 14-day regrowth probability came out at 40%.
On to `CCC(=O)NS(=O)(=O)c1ccc(-n2nc(CO[N+](=O)[O-])cc2-c2ccc(OC)cc2)cc1` [6d, {5-(4-Methoxyphenyl)-1-[4-(N-propionylsulfamoyl)phenyl]-1H-pyrazol-3-yl}methyl nitrate], for which the IC50 in series [1] (setting [5]) is greater than 100 µM. The same compound came in with a chromatographic logD in series [2] of 1.55. In addition, in series [3], the “thiol-dependent NO release” value was found to be 65% and the “spontaneous NO release” value is listed as 40%. For the same compound, in series [4], the “growth response (spheroid size)” value is “prevented spheroids from shrinking in size” and the 14-day regrowth probability is reported as 100%.
